In patent EP4755881A1 (Wuhan Createrna Science and Technology Co., Ltd., priority 2023, dated 2025):

Each compound was assayed against hLPAR1 (human lysophosphatidic acid receptor 1, Accession No.: NM_001401.4) (Homo sapiens, UniProt Q92633) (assay: cell-based). Details: LPAR1 inhibitory activity IC50, Table 1; FLIPR method, CHO-K1 cells overexpressing hLPAR1.
Description: The antagonist properties of the compounds in the present disclosure were determined using the FLIPR (Fluorometric Imaging Plate Reader) method in CHO-K1 cells (Chinese Hamster Ovary cells K1, ATCC) overexpressing hLPAR1 (human lysophosphatidic acid receptor 1, Accession No.: NM_001401.4).
CHO-K1 cells stably expressing hLPAR1 were placed in a cell culture incubator at 37°C with 5% CO2 and cultured in F-12 medium containing 10% FBS (fetal bovine serum, Gibco, 10099-141), 1% penicillin-streptomycin (Gibco, 15140-122), and 0.4 mg/mL Hygromycin B (Gibco, 10687010). 18-24 hours before the FLIPR experiment, the cells were seeded into a 96-well plate at a density of 250,000 cells/mL (25,000 cells/well) and incubated overnight in the cell culture incubator. On the day of the experiment, the medium was removed, and the cells were washed with FLIPR buffer (2.5 mM probenecid (Thermo, P36400), 1.3 mM CaCl2, 3.3 mM Na2CO3, 1 mM MgSO4, 20 mM HEPES (Invitrogen, 15630080), 1× HBSS (Invitrogen, 14065056), 0.1% BSA (BioSharp, 70080030)). 75 µL of […] Fluo-4 AM fluorescent dye (Thermo, F14202) was added to each well and incubated for 1.0 hour at 37°C for dye loading. The 96-well plate was then washed once with buffer, and 50 µL of buffer containing the test compound or vehicle was added to each well, followed by incubation at room temperature for 30 min. The cell plate was then placed into the FLIPR for baseline fluorescence measurement (excitation wavelength at 485 nm, emission wavelength at 525 to 535 nm). Subsequently, 50 µL/well of agonist (final concentration 1 µM oleoyl-L-α-lysophosphatidic acid sodium salt (Sigma, L7260)) or vehicle (ultrapure water) was added, and fluorescence values were measured at 1-second intervals for 2 min. Finally, the output fluorescence counts were analyzed using GraphPad Prism 9.0 software log(inhibitor) vs. response--Variable slope (four parameters) equation to calculate IC50 values.
Table 1: Inhibitory activity data of compounds against LPAR1

Sequence of hLPAR1 (human lysophosphatidic acid receptor 1, Accession No.: NM_001401.4) (Q92633 whole entry): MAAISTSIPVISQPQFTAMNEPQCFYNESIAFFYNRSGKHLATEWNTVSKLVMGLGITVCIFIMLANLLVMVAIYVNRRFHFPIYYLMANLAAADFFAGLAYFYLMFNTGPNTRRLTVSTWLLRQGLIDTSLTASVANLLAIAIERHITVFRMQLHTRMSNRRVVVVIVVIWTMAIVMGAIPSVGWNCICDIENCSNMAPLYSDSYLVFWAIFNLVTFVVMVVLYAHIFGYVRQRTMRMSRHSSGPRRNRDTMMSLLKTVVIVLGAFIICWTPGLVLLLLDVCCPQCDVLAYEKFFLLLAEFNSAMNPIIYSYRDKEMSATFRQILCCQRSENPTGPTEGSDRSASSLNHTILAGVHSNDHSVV

SMILES	IC50 [nM]
Cc1nc(-c2nnn(C)c2NC(=O)O[C@H](C)CC(C)(F)F)ccc1C#C[C@@H]1CCC[C@H]1C(=O)O (single isomer, unassigned) [246-A]	18.3
Cc1nc(-c2nnn(C)c2NC(=O)O[C@H](C)CC(C)C)ccc1C#CC1(CC(=O)O)CC1 [compound 220]	15.5
CCC[C@@H](C)OC(=O)Nc1c(-c2ccc(C#CC3(CC(=O)O)CCC3)c(C)n2)nnn1C [compound 325]	40.3
Cc1nc(-c2nnn(C)c2NC(=O)O[C@H](C)CC2CC2)ccc1C#CC1(CC(=O)O)CC1 [compound 302]	24.7
Cc1nc(-c2nnn(C)c2CNC(=O)OCc2cc(F)cnc2Cl)ccc1C#CC1(CC(=O)O)CC1 [compound 117]	79.4
Cc1nc(-c2nnn(C)c2NC(=O)O[C@H](C)C(C)C)ccc1C#CC1(CC(=O)O)CC1 [compound 310]	114

Same assay, conditions: Table 1; FLIPR method, CHO-K1 cells overexpressing hLPAR1; read-out: LPAR1 inhibitory activity IC50

SMILES	IC50 [nM]
Cc1nc(-c2nnn(C)c2NC(=O)OC(C)CC2CC2)ccc1C#CC1CCC1C(=O)O (single isomer, unassigned) [248-B]	19.1
Cc1nc(-c2nnn(C)c2NC(=O)O[C@H](C)c2ccccc2Cl)ccc1C#C[C@@H]1CCCC[C@H]1C(=O)O (mixture of isomers) [031-B, trans-2-((6-(5-((((R)-1-(2-chlorophenyl)ethoxy)carbonyl)amino)-1-methyl-1H-1,2,3-triazol-4-yl)-2-methylpyridin-3-yl)ethynyl)cyclohexane-1-carboxylic acid]	0.2
Cc1nc(-c2nnn(C)c2NC(=O)O[C@H](C)c2ccccc2)ccc1C#C[C@@H]1CCCC[C@H]1C(=O)O (mixture of isomers) [027-A, trans-2-((2-methyl-6-(1-methyl-5-((((R)-1-phenylethoxy)carbonyl)amino)-1H-1,2,3-triazol-4-yl)pyridin-3-yl)ethynyl)cyclohexane-1-carboxylic acid]	2.6
CCC(F)(F)[C@@H](C)OC(=O)Nc1c(-c2ccc(C#C[C@@H]3CCC[C@H]3C(=O)O)c(C)n2)nnn1C (mixture of isomers) [219-A, trans-2-((6-(5-(((((R)-3,3-difluoropentan-2-yl)oxy)carbonyl)amino)-1-methyl-1H-1,2,3-triazol-4-yl)-2-methylpyridin-3-yl)ethynyl)cyclopentane-1-carboxylic acid]	3.3
Cc1nc(-c2nnn(C)c2NC(=O)O[C@H](C)CC(C)(F)F)ccc1C#C[C@@H]1CC[C@H]1C(=O)O (mixture of isomers) [213-A, trans-2-((6-(5-(((((R)-4,4-difluoropentan-2-yl)oxy)carbonyl)amino)-1-methyl-1H-1,2,3-triazol-4-yl)-2-methylpyridin-3-yl)ethynyl)cyclobutane-1-carboxylic acid]	48.2
Cc1nc(-c2nnn(C)c2NC(=O)OC(C)c2cc(F)cnc2Cl)ccc1C#CC1(CC(=O)O)CC1 (centres unmarked) [compound 023, 2-(1-((6-(5-(((1-(2-chloro-5-fluoropyridin-3-yl)ethoxy)carbonyl)amino)-1-methyl-1H-1,2,3-triazol-4-yl)-2-methylpyridin-3-yl)ethynyl)cyclopropyl)acetic acid]	45.2
Cc1nc(-c2nnn(C)c2NC(=O)O[C@H](C)c2ccccc2Cl)ccc1C#CC1(CC(=O)O)CC1 [compound 013, (R)-2-(1-((6-(5-(((1-(2-chlorophenyl)ethoxy)carbonyl)amino)-1-methyl-1H-1,2,3-triazol-4-yl)-2-methylpyridin-3-yl)ethynyl)cyclopropyl)acetic acid]	2.6
Cc1nc(-c2nnn(C)c2NC(=O)O[C@H](C)CC(C)(C)F)ccc1C#C[C@@H]1CC(F)(F)C[C@H]1C(=O)O [compound 273]	14.9
Cc1noc(-c2ccc(C#C[C@@H]3CCC[C@H]3C(=O)O)cn2)c1NC(=O)O[C@H](C)CC(C)(F)F [compound 344]	104
Cc1nc(-c2nnn(C)c2NC(=O)OC(C)C2CCC2)ccc1C#CC1CC(F)(F)CC1C(=O)O (centres unmarked) [242-A]	7
Cc1nc(-c2nnn(C)c2NC(=O)O[C@H](C)CC(C)(C)F)ccc1C#C[C@@H]1CCC[C@H]1C(=O)O (mixture of isomers) [244-A, trans-2-((6-(5-(((((R)-4-fluoro-4-methylpentan-2-yl)oxy)carbonyl)amino)-1-methyl-1H-1,2,3-triazol-4-yl)-2-methylpyridin-3-yl)ethynyl)cyclopentane-1-carboxylic acid]	19.8
Cc1nc(-c2nnn(C)c2NC(=O)OC(C)CC(C)(C)F)ccc1C#CC1CCC1C(=O)O (single isomer, unassigned) [306-A]	50.6
Cc1nc(-c2nnn(C)c2NC(=O)O[C@H](C)CC2CC2)ccc1C#C[C@@H]1CC(F)(F)C[C@H]1C(=O)O (mixture of isomers) [compound 205, trans-2-((6-(5-(((((R)-1-cyclopropylpropan-2-yl)oxy)carbonyl)amino)-1-methyl-1H-1,2,3-triazol-4-yl)-2-methylpyridin-3-yl)ethynyl)-4,4-difluorocyclopentane-1-carboxylic acid]	3.1

The next lines start with the values.

IC50 [nM]	SMILES
39.9	Cc1nc(-c2nnn(C)c2COC(=O)N(C)CC2CCCC2(F)F)ccc1C#CC1(CC(=O)O)CC1 (centres unmarked) [compound 095]
59.9	CCc1nc(-c2nnn(C)c2COC(=O)N(C)CCCCF)ccc1C#CC1(CC(=O)O)CC1 [compound 230]
0.6	Cc1nc(-c2nnn(C)c2NC(=O)OC(C)C2CCC2)ccc1C#CC1(CC(=O)O)CC1 (centres unmarked) [032-A, 2-(1-((6-(5-(((1-cyclobutylethoxy)carbonyl)amino)-1-methyl-1H-1,2,3-triazol-4-yl)-2-methylpyridin-3-yl)ethynyl)cyclopropyl)acetic acid]
157	CCC(F)(F)CN(C)C(=O)OCc1c(-c2ccc(C#CC3(CC(=O)O)CC3)c(C)n2)nnn1C [compound 082]
20.2	CCC(F)(F)[C@@H](C)OC(=O)Nc1c(-c2ccc(C#CC3(CC(=O)O)CC3)c(C)n2)nnn1C [207', (R)-2-(1-((6-(5-((((3,3-difluoropentan-2-yl)oxy)carbonyl)amino)-1-methyl-1H-1,2,3-triazol-4-yl)-2-methylpyridin-3-yl)ethynyl)cyclopropyl)acetic acid]
12.7	CCC(F)(F)[C@@H](C)OC(=O)Nc1c(-c2ccc(C#CC3(CC(=O)O)CC3)c(Cl)n2)nnn1C [compound 209, (R)-2-(1-((2-chloro-6-(5-((((3,3-difluoropentan-2-yl)oxy)carbonyl)amino)-1-methyl-1H-1,2,3-triazol-4-yl)pyridin-3-yl)ethynyl)cyclopropyl)acetic acid]
56.2	CCCC(C)OC(=O)Nc1c(-c2ccc(C#CC3(CC(=O)O)CC3)c(C)n2)nnn1C (centres unmarked) [compound 010, 2-(1-((2-methyl-6-(1-methyl-5-(((pentan-2-yloxy)carbonyl)amino)-1H-1,2,3-triazol-4-yl)pyridin-3-yl)ethynyl)cyclopropyl)acetic acid]
66.3	CCCCN(C)C(=O)OCc1c(-c2ccc(C#CC3(CC(=O)O)CC3)c(C)n2)nnn1C [compound 004, 2-(1-((6-(5-(((butyl(methyl)carbamoyl)oxy)methyl)-1-methyl-1H-1,2,3-triazol-4-yl)-2-methylpyridin-3-yl)ethynyl)cyclopropyl)acetic acid]
42.5	Cc1nc(-c2nnn(C)c2COc2nccc(C3CCC3)n2)ccc1C#CC1(CC(=O)O)CC1 [compound 194]
18.7	Cc1nc(-c2nnn(C)c2NC(=O)OC(C)C2CCCC2)ccc1C#CC1(CC(=O)O)CC1 (centres unmarked) [092', 2-(1-((6-(5-(((1-cyclopentylethoxy)carbonyl)amino)-1-methyl-1H-1,2,3-triazol-4-yl)-2-methylpyridin-3-yl)ethynyl)cyclopropyl)acetic acid]
9.5	Cc1nc(-c2nnn(C)c2NC(=O)O[C@H](C)c2ccccc2)ccc1C#CC1(CC(=O)O)CC1 [compound 022, (R)-2-(1-((2-methyl-6-(1-methyl-5-(((1-phenylethoxy)carbonyl)amino)-1H-1,2,3-triazol-4-yl)pyridin-3-yl)ethynyl)cyclopropyl)acetic acid]
33.6	Cc1nc(-c2nnn(C)c2COC(=O)N(C)[C@H](C)C2CC2)ccc1C#CC1(CC(=O)O)CC1 [compound 030, (R)-2-(1-((6-(5-((((1-cyclopropylethyl)(methyl)carbamoyl)oxy)methyl)-1-methyl-1H-1,2,3-triazol-4-yl)-2-methylpyridin-3-yl)ethynyl)cyclopropyl)acetic acid]
4.2	Cc1nc(-c2nnn(C)c2COC(=O)N(C)CC2CCCC2)ccc1C#CC1(CC(=O)O)CC1 [compound 039, 2-(1-((6-(5-((((cyclopentylmethyl)(methyl)carbamoyl)oxy)methyl)-1-methyl-1H-1,2,3-triazol-4-yl)-2-methylpyridin-3-yl)ethynyl)cyclopropyl)acetic acid]
